Where two headings read alike, the source gives them in different places.
How the values were obtained:
[1] = molecular target: T1, β5 subunit of the human constitutive 20S proteasome (Homo sapiens, UniProt P20618+P28074); assay: In vitro β5 proteasome inhibitory activity and kinetic constants (Suc-LLVY-AMC, chymotrypsin-like activity); type: biochemical; details: for K′i (apparent β5 subunit inhibitory activity): human erythrocyte 20S proteasome, chymotrypsin-like activity, 37 °C; for kinact/KI: read-out: k assoc (k2/Ki)
T1 construct: human erythrocyte 20S; purchased R&D Systems, Inc; host or cells: human erythrocytes (native, purified from tissue)
Description: First, the effect of modifying the macrocycle was investigated for 1–3 by analyzing the inhibitory activity of the β5 subunit of the human constitutive 20S proteasome. […] The k 2/K i ratio represents the second-order rate constant for the reaction of the inhibitor with the target (k assoc), and it indicates the overall inhibitory potency of the inhibitor.
4) Evaluation of in vitro β5 proteasome inhibitory activity and determination of kinetic […]
In vitro proteasome inhibitory activity was measured on 96-well microtiter plates using human erythrocyte 20S proteasome (R&D Systems, Inc.) with the AK-740 Assay Kit for Drug Discovery (Biomol). Reactions were performed at 37 °C in 100 μ L volu mes containing a serial dilution of test samples, 2 μ g/mL 20S proteasome, and 100 μM Suc-L LV Y -AMC for assaying chymotrypsin-like activity, according to the manufacture’s instructions.
Fluorescence was monitored with an infinite M200 microplate reader (Tecan) equipped with 360 nm excitation and […]
The observed rate constant for inhibition, kobs, at each concentration was determined fro m the slope of a semi-logarithmic plot of inhibition versus […]
equation, k obs = k 2[I]/(K i+[I]), to obtain values for Ki and k2. The k2/Ki ratio represents the second -order rate constant for the reaction of the inhibitor with the target. S7)

[2] = system: human myeloma Amo-1 cells; assay: Anti-proliferation activity against Amo-1 cells (CCK-8); type: cell-based
Protocol: 5) Evaluation of anti -proliferation activity against Amo- 1cells
Cell proliferation assays were performed using the Cell Counting Kit-8 (CCK-8) (Dojindo, CK04) according to the manufacturer’s protocol. In brief, Amo- 1 cells were cultured in RPMI1640 medium containing 10% FBS and 1% penicillin -strepto myc in.
After culturing for 24 h at 37 °C under atmosphere of 5% CO2, the cells were treated with a solution of the compound in DMSO (1 µL) at 37 °C for 72 h. A solution of the CCK-8 (10 µL) was then added to each well and the cells were incubated at 37 °C for 3 h. The absorbance at 450 nm was measured using an Infinite M200 PRO multimode microplate reader (Tecan). The data points were calculated from the average (±standard deviation) of three assays […]
(IC 50) were calculated from curves constructed by plotting cell proliferation (%) versus the log of compound […]
(1 picture or pasted object on this page, not shown here)

[3] = from fit kobs = k2[I]/(Ki + [I])
[4] = second-order rate constant, k2/Ki ratio
[5] = AMO1, Amo-1 cells, 72 h, CCK-8, read-out: IC50 (cell proliferation)

With `C=CC[C@H](NC(=O)[C@H](Cc1ccccc1)NC(=O)CCCCCCCCC)C(=O)N[C@H](/C=C/C(=O)NC)C(C)C` [analogue 13] the “K′i (apparent β5 subunit inhibitory activity)” value [1] was over 1000 nM and the “inhibitory activity” value ([1]; β5 subunit) was “no inhibitory activity”.
For `CCCCCCCCCC(=O)N[C@@H](Cc1ccccc1)C(=O)N[C@H]1C/C=C/CCNC(=O)/C=C/[C@H](C(C)C)NC1=O` [analogue 11], the Ki [1, 3] was 1.23 µM, the k 2 [1, 3] was 0.000875 s⁻¹ and the “K′i (apparent β5 subunit inhibitory activity)” value [1] was 320 nM. For the same compound, the kinact/KI [1, 4] was 713 M⁻¹ s⁻¹.
`CCCCCCCCCC(=O)N[C@@H](Cc1ccccc1)C(=O)N[C@H]1CC/C=C/CNC(=O)/C=C/[C@H](C(C)C)NC1=O` [analogue 10] was tested, and the Ki [1, 3] was 0.527 µM, the k 2 [1, 3] was 0.00134 s⁻¹ and the “K′i (apparent β5 subunit inhibitory activity)” value [1] was 79.2 nM. The kinact/KI [1, 4] was 2550 M⁻¹ s⁻¹.
With `CCCCCCCCCC(=O)N[C@@H](Cc1ccccc1)C(=O)N[C@H]1/C=C/CCNC(=O)/C=C/[C@H](C(C)C)NC1=O` [analogue 4] the IC50 ([2]; AMO1, 72 h, read-out: IC50 (cell proliferation)) was 0.00433 ± 0.0016 µM.
`CCCCCCCCCC(=O)N[C@@H](Cc1ccccc1)C(=O)N[C@H]1CCCNC(=O)/C=C/[C@H](C(C)C)NC1=O` [analogue 9] was tested, and the Ki [1, 3] was 0.547 µM, the k 2 [1, 3] was 0.00365 s⁻¹ and the “K′i (apparent β5 subunit inhibitory activity)” value [1] was 48.2 nM. The kinact/KI [1, 4] was 6670 M⁻¹ s⁻¹.
`CCCCCCCCCC(=O)N[C@@H](Cc1ccccc1)C(=O)N[C@H]1CCCCCNC(=O)/C=C/[C@H](C(C)C)NC1=O` [analogue 12] was tested, and the Ki [1, 3] was 9.09 µM, the k 2 [1, 3] was 0.00203 s⁻¹ and the “K′i (apparent β5 subunit inhibitory activity)” value [1] was 402 nM. The kinact/KI [1, 4] was 224 M⁻¹ s⁻¹.
For `CC(C)[C@H](NC(=O)N[C@H](C(=O)N[C@H]1/C=C/CCNC(=O)/C=C/[C@H](C(C)C)NC1=O)C(C)C)C(=O)O` [Syringolin A (1), Syringolin A, reference compound], the “k 2” value ([1]; as printed in text in s^–1) was 3.91 × 10^–3 s^–1, the k 2 [1, 3] was 0.00391 s⁻¹ and the “K′i (apparent β5 subunit inhibitory activity)” value [1] was 170 nM. The kinact/KI [1] was 1770 M⁻¹ s⁻¹.
In the case of `CCCCCCCCCC(=O)N[C@@H](Cc1ccccc1)C(=O)N[C@H]1/C=C/CNC(=O)/C=C/[C@H](C(C)C)NC1=O` [analogue 8], the “K i, decrease in affinity relative to 4” value ([1]; decrease relative to 4) is reported as 6.3 fold, the Ki [1, 3] is reported as 0.432 µM and the k 2 [1, 3] is reported as 0.00551 s⁻¹. The “k 2 relative to 4” value ([1]; greater than that of the 12-membered 4) was 1.29 fold, the “K′i (apparent β5 subunit inhibitory activity)” value [1] was 20.6 nM and the kinact/KI [1, 4] was 12800 M⁻¹ s⁻¹. For the same compound, the IC50 [2, 5] was 0.0263 ± 0.0093 µM.
In the case of `CC(C)[C@H](NC(=O)N[C@H](C(=O)N[C@H]1C/C=C/CNC(=O)/C=C/[C@H](C(C)C)NC1=O)C(C)C)C(=O)O` [Isosyringolin A (3), Isosyringolin A], the k 2 [1, 3] is reported as 0.00339 s⁻¹, the “K′i (apparent β5 subunit inhibitory activity)” value [1] is reported as 590 nM and the kinact/KI [1] is reported as 166 M⁻¹ s⁻¹.
In the case of `CCCCCCCCCC(=O)N[C@@H](Cc1ccc(-c2ccccc2)cc1)C(=O)N[C@H]1/C=C/CNC(=O)/C=C/[C@H](C(C)C)NC1=O` [analogue 14], the Ki [1, 3] is reported as 0.0422 µM, the k 2 [1, 3] is reported as 0.00428 s⁻¹ and the “K′i (apparent β5 subunit inhibitory activity)” value [1] is reported as 0.77 nM. For the same compound, the “k assoc (k2/Ki)” value [1, 4] was 101422 s^–1 M^–1, the kinact/KI [1, 4] was 101000 M⁻¹ s⁻¹ and the IC50 [2, 5] was 0.0121 µM.
